Results reported in ChEMBL document CHEMBL4385638, “Synthesis and biological evaluation of 1-alkylaminomethyl-1,1-bisphosphonic acids against Trypanosoma cruzi and Toxoplasma gondii” (Bioorg Med Chem, 2019).

Tests used:
Toxoplasma gondii [1] = assay: Antiparasitic activity against Toxoplasma gondii tachyzoites infected in human TerT cells assessed as decrease in parasite viability by red fluorescent protein based fluorescence method; type: functional; settings: read-out: ED50 (the source's name)
Trypanosoma cruzi = assay: Antiparasitic activity against Trypanosoma cruzi amastigote infected in African green monkey Vero cells decrease in parasite viability measured at day 3 of post infection by red fluorescent protein based fluorescence method; type: functional; settings: 72 h, read-out: ED50 (the source's name)
[2] = molecular target: T1, Farnesyl diphosphate synthase (Trypanosoma cruzi, UniProt Q8WS26); assay: Inhibition of Trypanosoma cruzi FPPS using DMAPP as substrate incubated for 30 mins measured by scintillation counting
T1 sequence (Q8WS26 whole entry): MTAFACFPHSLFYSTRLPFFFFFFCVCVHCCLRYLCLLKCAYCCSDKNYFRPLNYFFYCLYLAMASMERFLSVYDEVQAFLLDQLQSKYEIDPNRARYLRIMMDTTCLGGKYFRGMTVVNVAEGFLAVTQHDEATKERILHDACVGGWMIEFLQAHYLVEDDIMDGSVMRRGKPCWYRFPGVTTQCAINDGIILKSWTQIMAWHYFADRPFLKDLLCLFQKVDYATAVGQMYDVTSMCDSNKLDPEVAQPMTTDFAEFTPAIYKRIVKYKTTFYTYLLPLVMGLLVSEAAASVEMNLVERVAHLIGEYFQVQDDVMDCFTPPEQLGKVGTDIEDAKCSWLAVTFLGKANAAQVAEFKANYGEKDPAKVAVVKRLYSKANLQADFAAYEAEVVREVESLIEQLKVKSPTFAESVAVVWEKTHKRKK

[3] = molecular target: T2, Farnesyl diphosphate synthase (Toxoplasma gondii, UniProt Q197X6); assay: Inhibition of Toxoplasma gondii FPPS using DMAPP as substrate incubated for 30 mins measured by scintillation counting
T2 sequence (Q197X6 whole entry): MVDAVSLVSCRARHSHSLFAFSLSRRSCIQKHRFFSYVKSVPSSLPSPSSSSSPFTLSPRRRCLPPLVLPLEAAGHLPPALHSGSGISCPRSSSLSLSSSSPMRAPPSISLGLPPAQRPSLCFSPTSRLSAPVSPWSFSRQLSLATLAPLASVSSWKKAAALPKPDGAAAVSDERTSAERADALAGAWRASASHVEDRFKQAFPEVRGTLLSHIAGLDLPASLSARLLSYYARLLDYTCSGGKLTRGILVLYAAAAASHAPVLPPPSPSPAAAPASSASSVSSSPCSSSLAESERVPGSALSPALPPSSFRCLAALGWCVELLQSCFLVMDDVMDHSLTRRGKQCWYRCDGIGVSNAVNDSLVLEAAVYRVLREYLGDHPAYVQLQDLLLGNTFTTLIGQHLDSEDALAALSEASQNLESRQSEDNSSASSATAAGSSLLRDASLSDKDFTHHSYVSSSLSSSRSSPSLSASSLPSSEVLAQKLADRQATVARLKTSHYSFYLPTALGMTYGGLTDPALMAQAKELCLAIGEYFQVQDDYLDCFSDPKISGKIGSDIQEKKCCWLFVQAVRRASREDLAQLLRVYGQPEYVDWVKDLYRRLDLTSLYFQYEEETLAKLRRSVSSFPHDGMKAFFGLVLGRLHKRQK

[4] = Cytotoxicity against African green monkey Vero cells assessed as decrease in cell viability after 3 to 4 days by alamar blue assay; type: cell-based; settings: chlorocebus sabaeus, read-out: ED50 (the source's name)
Vero [5] = assay: Cytotoxicity against African green monkey Vero cells assessed as decrease in cell viability at 2.5 uM after 3 to 4 days by alamar blue assay; type: cell-based; settings: chlorocebus sabaeus
Vero [6] = assay: Cytotoxicity against African green monkey Vero cells assessed as decrease in cell viability at 5 to 10 uM after 3 to 4 days by alamar blue assay; type: cell-based; settings: chlorocebus sabaeus
Toxoplasma gondii [7] = assay: Antiparasitic activity against Toxoplasma gondii RH tachyzoites infected in ip dosed Webster mouse assessed as increase in survival rate administered daily starting on day 6 post infection for 10 days and measured 30 days post infection (reference value: 9 to 12 days); type: functional

Structure (SMILES) | EC50 (Toxoplasma gondii [1]) | EC50 (Trypanosoma cruzi) | IC50 [2] | IC50 [3] | other results
CCCCCCCCCCC[S+]([O-])CC(P(=O)(O)O)P(=O)(O)O (centres undefined) | 530 nM | – | – | – | –
CC1CCC(NCC(P(=O)(O)O)P(=O)(O)O)CC1 (centres undefined) | > 20000 nM | – | – | – | –
O=P(O)(O)C(CNC1CCCCCC1)P(=O)(O)O | > 20000 nM | – | – | – | –
CCCCNCC(F)(P(=O)(O)O)P(=O)(O)O | > 10000 nM | > 10000 nM | 173 nM | 286 nM | CC50 [4]: > 200000 nM
CCCCCCCNCC(F)(P(=O)(O)O)P(=O)(O)O | > 10000 nM | > 10000 nM | 71 nM | 88 nM | –
CCCCCCCCCCNCC(F)(P(=O)(O)O)P(=O)(O)O | 2260 nM | – | 136 nM | 80 nM | CC50 [4]: 20000 nM
CCCCCCCCCNCC(F)(P(=O)(O)O)P(=O)(O)O | 2240 nM | – | 34 nM | 51 nM | CC50 [4]: 15000 nM
CCCCCCCNCC(P(=O)(O)O)P(=O)(O)O | > 50000 nM | 10000 nM | – | – | –
CCCCCCCCCCCCNCC(P(=O)(O)O)P(=O)(O)O | 6230 nM | – | – | – | –
O=P(O)(O)C(CNC1CCCC1)P(=O)(O)O | > 20000 nM | – | – | – | –
O=C(Cn1ccnc1[N+](=O)[O-])NCc1ccccc1 [BENZNIDAZOLE] | – | 2580 nM | – | – | –
CCCCCCNCC(F)(P(=O)(O)O)P(=O)(O)O | > 10000 nM | > 10000 nM | 915 nM | 131 nM | –
CCCCCCCCCCCS(=O)(=O)CC(P(=O)(O)O)P(=O)(O)O | 380 nM | – | – | – | –
CCCCCCCCCCCCS(=O)(=O)CC(P(=O)(O)O)P(=O)(O)O | 930 nM | – | – | – | –
CCCCCCCCC(F)(P(=O)(O)O)P(=O)(O)O | 2670 nM | > 10000 nM | > 1000 nM | – | –
CCCCCCCC[S+](C)CC(P(=O)(O)O)P(=O)(O)O (centres undefined) | 7000 nM | – | – | – | –
CCCCCCCCCC(F)(P(=O)(O)O)P(=O)(O)O | > 10000 nM | > 10000 nM | > 1000 nM | – | –
CCCCCCCCCCSCC(P(=O)(O)O)P(=O)(O)O | 1800 nM | – | – | – | –
CCCCCNCC(F)(P(=O)(O)O)P(=O)(O)O | > 10000 nM | > 10000 nM | 611 nM | 299 nM | –
CCCCCCCCCCCNC(P(=O)(O)O)P(=O)(O)O | – | – | – | – | Activity (Vero [5]): Non-Toxic; Activity (Vero [6]): Toxic; CC50 [4]: 10000 nM
CCCCCCCCNCC(F)(P(=O)(O)O)P(=O)(O)O | 4010 nM | > 10000 nM | 85 nM | 79 nM | CC50 [4]: 162000 nM
CCCCCCCSCC(P(=O)(O)O)P(=O)(O)O | 970 nM | > 20000 nM | – | – | –
CCCCCCCCNCC(O)(P(=O)(O)O)P(=O)(O)O | 2000 nM | > 10000 nM | > 10000 nM | – | –
CCCCCCCCCCS(=O)(=O)CC(P(=O)(O)O)P(=O)(O)O | 110 nM | – | – | 270 nM | ED50 (Toxoplasma gondii [7]): 0.02 mg/kg
CCCCCCCCCCCSCC(P(=O)(O)O)P(=O)(O)O | 540 nM | – | – | – | –
CCCNCC(F)(P(=O)(O)O)P(=O)(O)O | – | > 10000 nM | 60 nM | 245 nM | –
CCCCCCNCC(P(=O)(O)O)P(=O)(O)O | 9400 nM | – | – | – | –
